The test system of test [1] is Canavalia ensiformis. Briefly: Inhibition of jack beans alpha-mannosidase at 1000 uM.
The target in test [2] is T1, Beta-glucuronidase (Bos taurus) (UniProt A3KMY8).
T1 sequence (whole entry): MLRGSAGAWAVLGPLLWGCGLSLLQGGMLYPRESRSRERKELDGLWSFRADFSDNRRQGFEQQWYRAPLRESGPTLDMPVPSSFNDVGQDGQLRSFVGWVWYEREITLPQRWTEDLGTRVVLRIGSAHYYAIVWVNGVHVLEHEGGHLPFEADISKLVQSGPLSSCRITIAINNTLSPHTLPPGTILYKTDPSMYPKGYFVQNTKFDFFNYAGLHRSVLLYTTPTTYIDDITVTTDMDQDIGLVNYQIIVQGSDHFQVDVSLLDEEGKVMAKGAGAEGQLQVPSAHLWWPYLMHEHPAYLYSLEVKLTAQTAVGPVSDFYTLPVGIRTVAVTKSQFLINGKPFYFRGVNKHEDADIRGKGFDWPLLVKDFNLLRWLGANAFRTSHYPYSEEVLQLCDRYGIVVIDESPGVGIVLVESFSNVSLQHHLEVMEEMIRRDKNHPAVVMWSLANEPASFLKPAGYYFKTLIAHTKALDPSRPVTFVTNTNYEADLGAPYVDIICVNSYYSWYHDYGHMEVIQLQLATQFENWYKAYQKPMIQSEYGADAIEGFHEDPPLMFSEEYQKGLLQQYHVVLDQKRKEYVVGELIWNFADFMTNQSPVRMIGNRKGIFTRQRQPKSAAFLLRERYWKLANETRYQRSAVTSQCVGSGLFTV
Briefly: Inhibition of bovine liver beta-glucuronidase at 1000 uM.

The test system of test [3] is Prunus dulcis. Briefly: Inhibition of almond beta-glucosidase at 1000 uM.
Test [4] relates to Oryza sativa. Briefly: Inhibition of rice alpha-glucosidase at 1000 uM.
The species named for test [5] is Rattus norvegicus. As to the kind of experiment: Inhibition of rat intestinal maltase alpha-glucosidase at 1000 uM.
Test [6] has as its system Aspergillus niger. Briefly: Inhibition of Aspergillus niger beta-glucosidase at 1000 uM.
In test [7] the target is T2, Alpha-glucosidase (Aspergillus niger) (UniProt P56526).
T2 sequence (whole entry): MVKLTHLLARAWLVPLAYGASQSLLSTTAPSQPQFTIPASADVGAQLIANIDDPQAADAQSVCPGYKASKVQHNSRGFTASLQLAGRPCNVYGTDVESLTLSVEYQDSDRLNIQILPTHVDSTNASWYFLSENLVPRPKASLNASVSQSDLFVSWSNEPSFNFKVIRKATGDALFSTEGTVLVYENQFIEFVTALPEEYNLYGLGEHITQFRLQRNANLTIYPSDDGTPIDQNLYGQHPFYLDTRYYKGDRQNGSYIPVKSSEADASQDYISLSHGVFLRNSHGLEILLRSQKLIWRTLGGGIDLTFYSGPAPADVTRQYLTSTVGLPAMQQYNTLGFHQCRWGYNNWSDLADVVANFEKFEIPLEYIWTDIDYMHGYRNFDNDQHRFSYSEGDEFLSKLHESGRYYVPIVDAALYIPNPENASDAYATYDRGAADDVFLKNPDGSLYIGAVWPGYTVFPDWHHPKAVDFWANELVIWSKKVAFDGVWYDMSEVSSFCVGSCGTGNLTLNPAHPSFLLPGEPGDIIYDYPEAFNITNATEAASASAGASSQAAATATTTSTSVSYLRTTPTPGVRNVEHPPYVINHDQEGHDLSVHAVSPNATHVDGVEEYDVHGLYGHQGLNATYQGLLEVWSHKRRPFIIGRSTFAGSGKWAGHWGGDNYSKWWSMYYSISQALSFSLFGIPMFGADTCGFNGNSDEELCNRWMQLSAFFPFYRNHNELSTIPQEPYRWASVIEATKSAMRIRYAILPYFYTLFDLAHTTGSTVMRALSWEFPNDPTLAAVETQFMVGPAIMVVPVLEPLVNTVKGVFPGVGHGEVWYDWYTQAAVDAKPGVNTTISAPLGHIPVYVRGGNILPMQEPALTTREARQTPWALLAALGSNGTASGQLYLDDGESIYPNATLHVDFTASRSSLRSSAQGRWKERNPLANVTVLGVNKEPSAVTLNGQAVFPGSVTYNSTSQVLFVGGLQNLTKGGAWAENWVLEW
As to the kind of experiment: Inhibition of Aspergillus niger alpha-glucosidase at 1000 uM.

The target of test [8] is T3, Uncharacterized protein (Sus scrofa) (UniProt I3LIR5).
T3 sequence (whole entry): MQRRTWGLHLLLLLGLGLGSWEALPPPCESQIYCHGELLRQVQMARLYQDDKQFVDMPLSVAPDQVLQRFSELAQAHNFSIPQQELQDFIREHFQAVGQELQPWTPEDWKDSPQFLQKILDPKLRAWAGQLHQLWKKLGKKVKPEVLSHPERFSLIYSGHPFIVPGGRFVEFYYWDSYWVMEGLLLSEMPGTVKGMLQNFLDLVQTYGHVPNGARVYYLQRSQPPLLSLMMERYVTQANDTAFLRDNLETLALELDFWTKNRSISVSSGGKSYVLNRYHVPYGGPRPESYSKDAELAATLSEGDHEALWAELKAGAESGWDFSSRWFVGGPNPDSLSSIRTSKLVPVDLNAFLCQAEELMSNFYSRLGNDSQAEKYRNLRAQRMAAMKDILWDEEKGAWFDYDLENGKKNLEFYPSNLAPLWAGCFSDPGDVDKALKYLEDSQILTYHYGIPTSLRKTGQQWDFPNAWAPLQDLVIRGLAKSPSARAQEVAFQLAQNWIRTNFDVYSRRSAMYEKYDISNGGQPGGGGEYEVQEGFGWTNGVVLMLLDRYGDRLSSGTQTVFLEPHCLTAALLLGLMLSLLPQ
As to the kind of experiment: Inhibition of pig kidney alpha, alpha trehalase at 1000 uM.

The test system of test [9] is Aspergillus niger. As to the kind of experiment: Inhibition of Aspergillus niger amyloglucosidase at 1000 uM.
Test [10] relates to Helix pomatia. As to the kind of experiment: Inhibition of snail beta-mannosidase at 1000 uM.
In test [11] the target is Alpha-galactosidase (Coffea arabica) (UniProt Q42656). As to the kind of experiment: Inhibition of coffee bean alpha-galactosidase at 1000 uM.
Chain of Alpha-galactosidase (Coffea arabica) (Q42656 16-378 limits assumed): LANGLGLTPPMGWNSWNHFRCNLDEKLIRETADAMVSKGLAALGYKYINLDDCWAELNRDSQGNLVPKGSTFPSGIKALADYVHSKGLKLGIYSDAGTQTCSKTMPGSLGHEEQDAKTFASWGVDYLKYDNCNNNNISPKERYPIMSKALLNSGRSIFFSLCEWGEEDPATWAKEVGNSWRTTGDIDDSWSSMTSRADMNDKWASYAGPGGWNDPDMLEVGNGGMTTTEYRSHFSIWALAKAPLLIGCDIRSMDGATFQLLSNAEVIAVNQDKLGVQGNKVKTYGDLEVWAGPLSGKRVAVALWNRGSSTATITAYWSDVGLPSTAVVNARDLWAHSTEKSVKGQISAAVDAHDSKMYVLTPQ
For test [12], the system named is Rhizopus. Briefly: Inhibition of Rhizopus sp. amyloglucosidase at 1000 uM.
In test [13] the target is Oligo-1,6-glucosidase IMA1 (Saccharomyces cerevisiae S288c) (UniProt P53051). As to the kind of experiment: Inhibition of yeast alpha-glucosidase at 1000 uM.
Chain of Oligo-1,6-glucosidase IMA1 (Saccharomyces cerevisiae S288c) (P53051 whole entry): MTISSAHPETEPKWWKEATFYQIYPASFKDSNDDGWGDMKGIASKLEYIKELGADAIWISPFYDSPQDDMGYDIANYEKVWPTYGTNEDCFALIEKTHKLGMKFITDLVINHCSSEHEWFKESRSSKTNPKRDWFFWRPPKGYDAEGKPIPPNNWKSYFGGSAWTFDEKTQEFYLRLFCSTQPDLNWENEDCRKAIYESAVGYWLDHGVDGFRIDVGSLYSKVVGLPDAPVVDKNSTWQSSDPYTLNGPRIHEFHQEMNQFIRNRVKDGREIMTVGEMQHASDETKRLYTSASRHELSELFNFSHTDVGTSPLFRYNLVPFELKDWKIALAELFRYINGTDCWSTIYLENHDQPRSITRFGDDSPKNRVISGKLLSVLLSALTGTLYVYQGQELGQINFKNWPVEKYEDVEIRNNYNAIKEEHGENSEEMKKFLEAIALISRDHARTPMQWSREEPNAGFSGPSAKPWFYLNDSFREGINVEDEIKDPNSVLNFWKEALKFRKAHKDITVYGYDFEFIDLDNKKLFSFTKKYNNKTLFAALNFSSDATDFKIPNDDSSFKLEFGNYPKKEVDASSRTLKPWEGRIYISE

Structures are written as SMILES.

In general, inhibition refers to the percentage by which the read-out fell short of the control. Higher therefore signals a response far below the control. `CC[C@H]1NC[C@@H](O)[C@@H](O)[C@H](O)[C@H]1O`: the inhibition came to 0% in test [1]; 0.1% in test [2]; 5.1% in test [3]; 1% in test [4]; 0% in test [5]; 0% in test [6]. For the same compound, the inhibition in test [7] was 0%; in [8] it was 3.9%; in test [9], 0.8%; in test [10], 0%; in [11], 1.2%; in test [12], 0%. In test [13], this compound came in with an inhibition of 0%.

On to `CC[C@@H]1NC[C@@H](O)[C@@H](O)[C@H](O)[C@H]1O`, for which the inhibition in test [1] amounted to 11%; in test [2], 0.1%; in [3] it was 48.7%; in test [4] it was 0%; in [5] it was 13.7%; in test [6], 0%. Further, the inhibition is 0.2% in test [7]; 0% in [8]; 0% in [9]; 0% in test [10]; 7.5% in test [11]; 0% in test [12]. For the same compound, the inhibition in test [13] was 23.5%.

For `CC[C@@H]1N[C@@H](CO)[C@@H](O)[C@H](O)[C@H]1O`, the inhibition worked out at 0% in test [1]; 0.8% in [2]; 33.5% in [3]; 0% in test [4]; 0% in [5]; 0% in [6]. For the same compound, the inhibition in test [7] was determined as 6.1%; in [8], 6%; in test [9], 0%; in test [10], 0%; in [11], 0.6%; in test [12], 0%. Also, the inhibition in test [13] worked out at 0%.

`CC[C@H]1N[C@@H](CO)[C@@H](O)[C@H](O)[C@H]1O`: the inhibition in test [1] worked out at 5.1%; in test [2] it was 0%; in [3], 16.9%; in test [4], 0%; in test [5], 3.3%; in [6] it was 0%. Moreover, the inhibition worked out at 0% in [7]; 0% in test [8]; 1.9% in [9]; 0% in test [10]; 8.7% in test [11]; 0% in test [12]. The same compound had an inhibition in test [13] of 9%.

As for `CCC[C@@H]1N[C@@H](CO)[C@@H](O)[C@H](O)[C@H]1O`, the inhibition amounted to 5.1% in test [1]; 0% in test [2]; 42.6% in test [3]; 0% in test [4]; 0% in test [5]; 0% in test [6]. In addition, the inhibition was found to be 1.4% in test [7]; 0% in test [8]; 0% in test [9]; 1.3% in test [10]; 10.4% in [11]; 0% in [12]. For the same compound, in test [13], the inhibition is 40%.

As for `CC[C@@H]1N[C@H](CC)[C@H](O)[C@@H](O)[C@@H]1O`, the inhibition is 0.4% in test [1]; 0.5% in test [2]; 21.4% in test [3]; 1.7% in test [4]; 0% in test [5]; 0% in [6]. Also, the inhibition in test [7] worked out at 0%; in test [8], 4.9%; in test [9] it was 4.1%; in test [10], 0.3%; in [11] it was 3.7%; in [12], 3.4%. In addition, the inhibition in test [13] was determined as 2%.

The values above are taken from ChEMBL document CHEMBL2406948, “Skeletal rearrangement of seven-membered iminosugars: synthesis of (-)-adenophorine, (-)-1-epi-adenophorine and derivatives and evaluation as glycosidase inhibitors” (Bioorg Med Chem, 2013).
